Ends that are not written are not given here.
What was measured:
Format in all cases: cell-based, human
[1] = system: T cells infiltrating the graft; assay: Limiting dilution analysis of Th frequency among lymphocytes infiltrating the graft, Example 1; conditions: patient three, + self PBMC
Description: Biopsy tissue was washed twice with medium supplemented with 5 u/ml rIL-2. Cell growth was checked everyday. The medium was changed twice a week. T cells infiltrating the graft were further expanded in medium with rIL-2 for 7-14 days. When the cell number reached 1×10^6, they were harvested and plated at 400, 200 and 100 cells per well in the presence of autologous PBMC (5×10^4/per well) in 24 replicate cultures. Cultures were maintained and assayed for reactivity as described above. The precursor frequency of Th cells recognizing pp 22-35 and donor spleen cells was analyzed by Poisson statistics (Liu et al., 1992; and Zhang et al., 1994).

[2] = system: IL-2 expanded PBMCs of DR11 positive heart allograft recipients; assay: Limiting dilution analysis (LDA) of Th frequency in the periphery, Example 1; conditions: for T helper cell frequency, circulation: + self PBMC
Experimental: FIG. 6. Suppression of in vivo activated T cells by high doses of antigen. PBMCs obtained from patient […] on day 55 were expanded in IL-2 for 14 days and then tested in LDA (limiting dilution analysis) for reactivity to pp 22-35 at concentrations of […] in the presence of autologous APCs.
The LDA study of Th frequency in the periphery was performed using the method described by Zhang et al. (Zhang et al., 1994) with some modifications. PBMCs were plated at 2×10^4, 1×10^4 and 5×10^3 cells per well (24 wells for each concentration) in 0.1 ml medium containing 40 U/ml of rIL-2. On day 7, 0.1 ml fresh medium with rIL-2 was added to each well. After 14 days, each culture was split into 3 aliquots: one was cultured with autologous (patient) irradiated PBMC (5×10^4/well), the second with autologous PBMC plus pp 22-35, and the third with donor spleen cells (5×10^4/well). The cultures were pulsed with [^3H] thymidine ([…]) after 48 hours and harvested 18 hours later.
To establish whether the reactivity of in vivo activated T cells to peptide 22-35 can be suppressed by high concentrations of antigen the following experiment was performed: PBMC from […] were cultured for 14 days at different cell concentrations in medium with IL-2. Cultures were then tested in the presence of autologous APCs for reactivity to pp 22-35 at concentrations of 1 μM and 15 μM. At 1 μM of antigen there were 8×10^−6 reactive T cells while at 15 μM there was no reactivity (FIG. 6).

TCL LZ-anti-pp 21-42 = assay: Proliferation assay of TCL LZ-anti-pp 21-42; parameters: stimulation of TCL anti-pp 21-42 by overlapping 14-mer peptides: dose or concentration left out as unconfirmed
Experimental: (§1) FIGS. 1A and 1B. Reactivity of TCLs to the immunizing peptides and to r DR1 proteins. The TCL LZ-anti-pp 1-20 […] and TCL LZ-anti-pp 21-42 […] were tested for reactivity to various concentrations of rDR1 protein and pp 1-20 pr pp 21-42 using 2×10^4 responding cells and 5×10^4 irradiated autologous APCs per well. Cultures were labeled after 48 hours and harvested 18 hours later. Results are expressed as mean cpm of triplicate cultures. The standard deviation of measure was less than 10%.
(§2) FIGS. 2A and 2B. HLA-DR restriction of peptide recognition by TCLs. The TCL LZ-anti-pp 1-20 (FIG. 2A) and TCL LZ-anti-pp 21-42 (FIG. 2B) were stimulated with […] peptide (pp 1-20 for LZ-anti-pp 1-20 and pp 21-42 for LZ-anti-pp 21-42) in the presence of autologous and allogeneic APCs sharing with the responder one or no DR antigen. Assays were done as described in the description of FIGS. 1A and 1B.
FIG. 3. Determination of the core epitope of the dominant determinant of DR1 molecule. TCL LZ-anti-pp 21-42 was stimulated in individual cultures with nine overlapping 14-mer peptides ([…]) moving along residues 21-42 in single residue steps. The reactions were set up as described in the description of FIGS. 1A and 1B.
FIG. 4. Suppression of TCL reactivity by high concentrations of antigen. The proliferative response of TCL LZ-anti-pp 21-42 was tested as described in the description of FIGS. 1A and 1B using different concentrations of pp 22-35. The response was abolished at a concentration […].
(§3) T cells were grown in 24 well plates (Nunc, Inc., Naperville, Ill.) in RPM1 1640 medium supplemented with 10% human AB serum, […] L-glutamine, and 50 μg/ml gentamicin (Gibco, Grand Island, N.Y.). On day 10, rIL-2 was added at 5 μ/ml. Fourteen days after priming, T cells were collected, washed and restimulated at 10^6/ml with antigen, in culture medium containing rIL-2 (20 u/ml) and irradiated (3000 rad) autologous PBMCs (2×10^6/ml). Following three stimulations, two TCLs, named LZ-anti-pp1-20 and LZ-anti-pp21-42, were obtained.
(§4) Responding T cells (2×10^4/well) were cultured with irradiated APCs of responder or stimulator origin (5×10^4/well) in round bottom microtiter plates (Nunc Inc., Naperville, Ill.). Antigens were added to the cultures at the concentrations indicated. [^3H] thymidine (1 μCi/well) was added after 48 hours, and the cultures were harvested 18 hours later. [^3H] thymidine incorporation was measured in an LK Betaplate liquid scintillation counter (Wallace, Inc., Gaithersburg, Md.). Mean cpm in triplicate cultures and standard deviation of the mean were calculated.
The immune response of mature T cells can paradoxically be suppressed by high doses of antigen (Suzuki et al., 1988; and Critchfield et al, 1994). The possibility of suppressing indirect allorecognition was explored by testing the reactivity of TCL LZ-anti-pp 21-42 to increasing concentrations of pp 22-35 in the presence of autologous APC. The reactivity of the line started to decline when the concentration of the peptide was increased above 3 μM (FIG. 4).
(§5) T cells cultured with 27 μM of pp 22-35 lost viability (>90% Preputium iodide positive) within 72 hours, while T cells grown with high concentration of the irrelevant peptide alone were unaffected

[3] = system: PBMC from a responder (LZ), expressing HLA-DR β1*1101/1201; assay: In vitro immunization of PBMC from responder LZ with DR1 peptides (blastogenesis with autologous APCs); conditions: peptide 5 μg/ml
Experimental: Development of Allo-peptide Specific T Cell Lines for Epitope Mapping. PBMCs (at 10^6/ml) from a healthy person ([…]) with HLA-DRβ1*1101/1201 genotype were primed in individual cultures (Liu et al., 1992) with each or the following seven DR1 peptides(5 μg/ml) spanning the first domain of the Drβ1*0101 chain:
as §3
To monitor indirect recognition in allograft recipients, a determination was made as to whether T cell recognize one or more peptides resulting from the processing of an allogeneic MHC molecule by responder APCs. For this, in vitro PBMC were immunized from a responder (LZ), expressing HLA-DR β1*1101/1201, with seven partially overlapping peptides corresponding to the first domain of the Drβ1*0101 molecule. […] The resulting T cell lines were tested for their ability to recognize native rDR1 molecule at various protein concentrations.

TCL LZ-anti-pp 1-20 = assay: Proliferation assay of TCL LZ-anti-pp 1-20
Experimental: as §1
as §2, with “1B. […]” for “1B.”
as §4, with “Antigens were added to the cultures at the concentrations indicated. [^3H] thymidine (1 μCi/well) was added after 48 hours, and the cultures were harvested 18 hours later.” left out

[4] = system: TCL LZ-anti-pp 21-42 T cells; assay: Viability of T cells cultured with high peptide concentration (Preputium iodide); conditions: high concentration of the irrelevant peptide alone
Experimental: as §5

TCL-PR = assay: Proliferative response of TCL-PR to DR4 peptide
Description: The identification of the core epitope of the DR4/69-88 peptide has been accomplished. […] The peptide KRAAVDTYCRHNYG carries the expected anchor residues required by the peptide binding motif of the DTRβ1*1101 restriction molecule (i+7) as well as the TCR contact residues involved in the stimulation of TCL-PR.
The objective of these studies is to establish whether high doses of dominant peptide are tolerogenic. To increase resistance against enzymatic degradation D-Lysine is placed at the N-terminus and the C-terminus is amidated. We have established that the optimal dose of the dominant peptide (4/71-84) required for inducing maximal proliferation of TCR-PR is 5 μg/ml or approximately 5×10^−7M. Increasing concentration of peptide 4/71-84 (ranging from 10^−8 to 10^−4M) may be used to determine the dose required to reduce proliferation to the background values observed in cultures with APCs and no peptide. The viability of the cells will be assayed and physiological studies will be performed to determine whether the lack of proliferation results from the induction of enery of apoptosis.

## ERVRLLERCIYNQE [pp 22-35, ERVRLLERCIYNQE]
[1]; 55 d biopsy
  T helper cell frequency, graft: 4.3×10^−4
[1]; 55 d biopsy, listed as pp22-35
  T helper cell frequency, graft: 4.3 × 10^−4
[1]; 82 d biopsy
  T helper cell frequency, graft: 3.3×10^−4
[1]; 82 d biopsy, listed as pp22-35
  T helper cell frequency, graft: 3.3 × 10^−4
[2]; patient PBMC (day 55), 1 μM of antigen, autologous APCs, FIG. 6
  reactive T cells in LDA at low antigen concentration: 8×10^−6
[2]; patient PBMC (day 55), 15 μM of antigen, autologous APCs, FIG. 6
  reactive T cells in LDA at high antigen concentration: no reactivity
[2]; patient one, 1 Mo after transplantation
  T helper cell frequency, circulation: 0
[2]; patient one, 12 Mo after transplantation (chronic rejection)
  T helper cell frequency, circulation: 6×10^−6
[2]; patient one, 12 Mo after transplantation (chronic rejection), listed as pp22-35
  T helper cell frequency, circulation: 6.0 × 10^−6
[2]; patient three, 27 d after transplantation
  T helper cell frequency, circulation: 0
[2]; patient three, 41 d after transplantation
  T helper cell frequency, circulation: 7.4×10^−6
[2]; patient three, 41 d after transplantation, listed as pp22-35
  T helper cell frequency, circulation: 7.4 × 10^−6
[2]; patient three, 55 d after transplantation (acute rejection), listed as pp22-35
  T helper cell frequency, circulation: 8.0 × 10^−6
[2]; patient three, 55 d after transplantation (acute rejection), listed as pp-22-35
  T helper cell frequency, circulation: 8×10^−6
[2]; patient three, 82 d after transplantation (acute rejection), listed as pp22-35
  T helper cell frequency, circulation: 6.5 × 10^−6
[2]; patient three, 82 d after transplantation (acute rejection), listed as pp-22-35
  T helper cell frequency, circulation: 6.5e-06
[2]; patient two, 12 Mo after transplantation
  T helper cell frequency, circulation: failed to react
[2]; patient two, 12 Mo after transplantation, listed as pp22-35
  T helper cell frequency, circulation: 0
TCL LZ-anti-pp 21-42; FIG. 4 legend
  peptide concentration at which the proliferative response was abolished: 27 µM
TCL LZ-anti-pp 21-42; autologous APC, FIG. 4
  peptide concentration above which reactivity of the line started to decline: above 3 μM
  peptide concentration for complete suppression of TCL reactivity: 27 µM
TCL LZ-anti-pp 21-42; autologous APCs, FIG. 3
  stimulation of TCL anti-pp 21-42 by overlapping 14-mer peptides: stimulated strongly
TCL LZ-anti-pp 21-42; pp 22-35
  TCL-ZL response to pp 22-35: 17×10^3 cpm

## GDTRPRFLWQLKFECHFFNG (GDTRPRFLWQLKFECHFFNG) [pp 1-20, residues 1-20 of Drβ1*0101 chain]
[3]
  blastogenesis after in vitro immunization of PBMC: elicited blastogenesis
TCL LZ-anti-pp 1-20; autologous APCs, various concentrations, FIG. 1
  reactivity of TCL LZ-anti-pp 1-20: stimulated strongly
TCL LZ-anti-pp 1-20; autologous and allogeneic APCs, FIG. 2A
  HLA-DR restriction of peptide recognition by TCL anti-pp 1-20: only when presented by APCs carrying the Drβ1*1101 allele

## K G N N D E S N I S F K E K D (KGNNDESNISFKEKD) [NDA4-derived peptide, irrelevant synthetic peptide corresponding to the N-terminus of the NDA4 molecule, reference compound]
TCL LZ-anti-pp 21-42; pp 22-35 at plus NDA4-derived peptide at 30-50 μM
  TCL-ZL response to pp 22-35 in the presence of irrelevant peptide: 15-17×10^3 cpm
[4]
  viability of T cells grown with peptide alone: unaffected

## K R A A V D T Y C R H N Y G (KRAAVDTYCRHNYG) [4/71-84]
TCL-PR
  optimal dose required for inducing maximal proliferation of TCR-PR: 5 μg/ml and approximately 5×10^−7 M
  potency in stimulating the proliferative response of TCL-PR (core epitope of DR4/69-88): most potent

## TERVRLLERCIYNQEESVREDS (TERVRLLERCIYNQEESVREDS) [pp 21-42, residues 21-42 of Drβ1*0101 chain]
[3]
  blastogenesis after in vitro immunization of PBMC: elicited blastogenesis
TCL LZ-anti-pp 21-42; autologous APCs, various concentrations, FIG. 1B
  reactivity of TCL LZ-anti-pp 21-42: reacted vigorously
TCL LZ-anti-pp 21-42; autologous and allogeneic APCs, FIG. 2B
  HLA-DR restriction of peptide recognition by TCL anti-pp 21-42: only when presented by APCs carrying the Drβ1*1101 allele
